The target in experiment [1] is Tyrosine-protein kinase Lck (Homo sapiens, UniProt P06239). Description: Inhibition of p56 lck tyrosine kinase.
Experiment [2] has as its target T1, Tyrosine-protein kinase ZAP-70 (Homo sapiens, UniProt P43403).
T1 sequence (P43403 whole entry): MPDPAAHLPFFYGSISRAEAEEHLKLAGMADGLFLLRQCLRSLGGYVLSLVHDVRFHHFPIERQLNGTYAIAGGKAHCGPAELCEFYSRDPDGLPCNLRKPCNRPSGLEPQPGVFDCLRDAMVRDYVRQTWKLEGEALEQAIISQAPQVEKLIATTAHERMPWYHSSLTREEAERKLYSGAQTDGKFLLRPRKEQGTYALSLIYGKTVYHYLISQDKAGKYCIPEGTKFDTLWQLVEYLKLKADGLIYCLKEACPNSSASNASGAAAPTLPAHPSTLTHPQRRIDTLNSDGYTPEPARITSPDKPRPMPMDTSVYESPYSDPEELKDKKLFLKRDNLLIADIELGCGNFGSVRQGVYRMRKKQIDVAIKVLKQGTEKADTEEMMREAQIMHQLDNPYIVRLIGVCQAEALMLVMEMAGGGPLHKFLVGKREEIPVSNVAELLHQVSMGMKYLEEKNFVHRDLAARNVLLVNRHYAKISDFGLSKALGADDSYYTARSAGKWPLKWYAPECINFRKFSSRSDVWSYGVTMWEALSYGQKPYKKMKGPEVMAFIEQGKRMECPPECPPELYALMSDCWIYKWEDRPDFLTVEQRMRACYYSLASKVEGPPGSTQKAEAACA
Description: Inhibition of Zeta-chain (TCR) associated protein kinase 70 kDa phosphorylation of polyGly-Tyr.

Another experiment deals with Protein kinase C (PKC). The experiment is described as follows: Inhibition of protein kinase C (PKC). In kind it is protein assay.
The target of experiment [3] is Tyrosine-protein kinase CSK (Homo sapiens, UniProt P41240). The experiment is described as follows: Inhibition of csk tyrosine kinase.
For experiment [4], the target named is Epidermal growth factor receptor (Homo sapiens, UniProt P00533). The experiment is described as follows: Inhibition of Epidermal growth factor receptor (EGFr).

Each structure is given as a SMILES string. Where only a bound is given, the exact number is not on record here.

Usually IC50 stands for the concentration needed to halve the response being measured. A high value points to weaker potency.

Sequence of Tyrosine-protein kinase Lck (P06239 whole entry): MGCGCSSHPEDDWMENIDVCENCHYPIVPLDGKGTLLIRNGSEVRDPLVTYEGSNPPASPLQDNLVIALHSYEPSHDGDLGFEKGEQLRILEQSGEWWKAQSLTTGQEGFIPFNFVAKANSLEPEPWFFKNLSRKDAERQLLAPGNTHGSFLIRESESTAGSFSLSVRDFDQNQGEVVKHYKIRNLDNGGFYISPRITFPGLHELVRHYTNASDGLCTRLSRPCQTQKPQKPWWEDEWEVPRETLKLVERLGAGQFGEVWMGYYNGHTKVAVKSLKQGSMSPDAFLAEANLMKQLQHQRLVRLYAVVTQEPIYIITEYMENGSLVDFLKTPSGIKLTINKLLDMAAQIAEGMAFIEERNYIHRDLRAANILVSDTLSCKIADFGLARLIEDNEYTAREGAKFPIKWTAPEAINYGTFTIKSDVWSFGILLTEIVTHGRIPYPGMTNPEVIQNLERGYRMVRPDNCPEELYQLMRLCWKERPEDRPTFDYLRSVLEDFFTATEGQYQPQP
Sequence of Tyrosine-protein kinase CSK (P41240 whole entry): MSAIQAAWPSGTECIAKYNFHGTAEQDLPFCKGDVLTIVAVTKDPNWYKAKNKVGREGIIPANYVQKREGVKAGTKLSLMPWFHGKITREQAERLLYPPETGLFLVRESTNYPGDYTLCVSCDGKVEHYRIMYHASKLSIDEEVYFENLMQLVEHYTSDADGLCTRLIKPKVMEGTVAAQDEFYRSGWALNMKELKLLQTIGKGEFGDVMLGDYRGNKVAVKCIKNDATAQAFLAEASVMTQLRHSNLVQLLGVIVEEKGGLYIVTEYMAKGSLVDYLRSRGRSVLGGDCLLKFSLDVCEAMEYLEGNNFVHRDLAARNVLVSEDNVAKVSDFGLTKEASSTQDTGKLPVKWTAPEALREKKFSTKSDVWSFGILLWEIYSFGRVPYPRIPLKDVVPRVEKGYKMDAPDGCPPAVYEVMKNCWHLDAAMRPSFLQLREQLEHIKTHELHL
Sequence of Epidermal growth factor receptor (P00533 whole entry): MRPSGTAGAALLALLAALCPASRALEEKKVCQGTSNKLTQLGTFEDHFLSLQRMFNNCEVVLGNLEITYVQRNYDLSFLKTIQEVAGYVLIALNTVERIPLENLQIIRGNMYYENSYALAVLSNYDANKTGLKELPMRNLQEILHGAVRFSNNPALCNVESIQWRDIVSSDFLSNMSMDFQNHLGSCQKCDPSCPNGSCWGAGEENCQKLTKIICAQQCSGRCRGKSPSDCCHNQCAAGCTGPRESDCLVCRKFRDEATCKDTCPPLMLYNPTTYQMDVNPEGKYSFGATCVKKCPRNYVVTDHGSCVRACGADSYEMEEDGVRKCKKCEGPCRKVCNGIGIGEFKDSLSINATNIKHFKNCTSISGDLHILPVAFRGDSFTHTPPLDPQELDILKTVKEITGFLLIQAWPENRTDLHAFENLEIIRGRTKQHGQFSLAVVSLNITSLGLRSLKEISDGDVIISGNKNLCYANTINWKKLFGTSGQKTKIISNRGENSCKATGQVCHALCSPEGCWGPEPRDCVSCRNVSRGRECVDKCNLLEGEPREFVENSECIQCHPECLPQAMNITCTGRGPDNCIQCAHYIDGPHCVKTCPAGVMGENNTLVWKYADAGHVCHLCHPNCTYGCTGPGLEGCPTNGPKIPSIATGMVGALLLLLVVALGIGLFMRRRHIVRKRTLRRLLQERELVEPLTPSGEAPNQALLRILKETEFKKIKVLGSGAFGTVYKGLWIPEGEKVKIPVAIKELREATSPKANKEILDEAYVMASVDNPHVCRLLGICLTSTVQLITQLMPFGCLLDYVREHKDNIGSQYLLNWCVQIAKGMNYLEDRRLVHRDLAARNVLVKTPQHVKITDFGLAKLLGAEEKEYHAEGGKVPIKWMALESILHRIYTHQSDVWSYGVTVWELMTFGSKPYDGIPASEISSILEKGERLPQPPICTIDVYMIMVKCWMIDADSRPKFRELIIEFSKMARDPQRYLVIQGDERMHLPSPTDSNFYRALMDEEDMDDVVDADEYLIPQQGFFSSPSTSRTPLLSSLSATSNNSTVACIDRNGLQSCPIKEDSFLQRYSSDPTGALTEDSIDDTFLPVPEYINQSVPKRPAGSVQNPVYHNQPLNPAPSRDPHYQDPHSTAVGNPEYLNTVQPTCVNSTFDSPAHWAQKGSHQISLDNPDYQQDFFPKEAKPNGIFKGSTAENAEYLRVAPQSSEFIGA

With `COc1cc(Nc2nccc(-c3cccnc3)n2)cc(OC)c1OC`, the IC50 in experiment [1] was 1100 nM; in experiment [2], 1900 nM; against Protein kinase C (PKC), 1400 nM.
The matching figures for `CC[C@H]1CN(c2ccc(-c3ccnc(Nc4cc(OC)c(OC)c(OC)c4)n3)cn2)CCN1`: 2200 nM, 8 nM and 2874 nM.
Turning to `COc1cc(Nc2nccc(-c3ccc(NCCN)nc3)n2)cc(OC)c1OC`, the half-maximal inhibitory concentration (IC50) in experiment [1] was 1200 nM; in experiment [3], over 10000 nM; against Protein kinase C (PKC) it was 150 nM; in experiment [4] it was 5100 nM.
As to `COc1cc(Nc2nccc(-c3ccc(N4CCNCC4)nc3)n2)cc(OC)c1OC`, the IC50 in experiment [1] was 3300 nM; in experiment [3], over 10000 nM; in experiment [2] it was 54 nM; on Protein kinase C (PKC) it was 1300 nM.
